Data: patent US20140023611A1 (priority 2010, published 2014)

Molecular target: T1, rat NaP2b (SLC34A2) (Rattus norvegicus, UniProt Q9JJ09)
T1 construct: host or cells: HEK293
T1 sequence (Q9JJ09 1-695): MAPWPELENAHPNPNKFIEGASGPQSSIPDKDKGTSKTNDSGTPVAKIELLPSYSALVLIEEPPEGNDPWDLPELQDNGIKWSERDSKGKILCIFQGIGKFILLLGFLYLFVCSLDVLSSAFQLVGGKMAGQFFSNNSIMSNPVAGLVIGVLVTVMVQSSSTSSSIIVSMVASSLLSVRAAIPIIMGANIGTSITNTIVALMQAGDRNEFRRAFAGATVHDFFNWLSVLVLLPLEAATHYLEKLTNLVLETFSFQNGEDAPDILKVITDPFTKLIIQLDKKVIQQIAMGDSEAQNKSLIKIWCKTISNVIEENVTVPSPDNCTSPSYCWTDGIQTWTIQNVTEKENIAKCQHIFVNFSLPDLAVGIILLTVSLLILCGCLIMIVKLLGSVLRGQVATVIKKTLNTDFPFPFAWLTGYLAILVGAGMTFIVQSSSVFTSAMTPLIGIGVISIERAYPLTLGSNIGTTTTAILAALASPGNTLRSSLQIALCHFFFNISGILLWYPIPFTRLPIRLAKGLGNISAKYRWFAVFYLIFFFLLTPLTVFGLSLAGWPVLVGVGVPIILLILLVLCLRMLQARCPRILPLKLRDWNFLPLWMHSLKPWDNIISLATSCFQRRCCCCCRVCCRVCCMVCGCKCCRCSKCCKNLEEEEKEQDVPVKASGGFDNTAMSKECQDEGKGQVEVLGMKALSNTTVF
Test: Inhibition of NaP2b-mediated Pi (33P) uptake in transfected HEK293 cells, rat NaP2b
Type: cell-based
Settings: 33P Pi uptake, 0.1 mM phosphate, value given as pIC50 range
Protocol: HEK293 cells were obtained from the American Type Culture collection and propagated per their instructions. […] The sequence of the human protein was mutated to insert a threonine after residue 37, and to introduce a N39D mutation.
Cells were seeded into 96-well plates at 25,000 cells/well and cultured overnight. Lipofectamine 2000 (Invitrogen) was used to introduce the NaP2b cDNA, and the cells were allowed to approach confluence during a second overnight incubation. […] Each compound was tested at twelve concentrations ranging from 0.1 nM to 30 uM. Assays were run in duplicate.
Cells were lysed by addition of 20 μL 0.1% Tween 80 followed by 100 μL scintillation fluid, and counted using a TopCount (Perkin Elmer).
pIC50 (the negative log of the IC50) values of the test compounds were calculated using GraphPad Prism.

Structure (SMILES)	IC50	pIC50 range for rat Nap2b
O=C(O)CCSCc1cccc(C(=O)Nc2ccc(N3CCCCC3)cc2-c2cc(Oc3cccc(C(F)(F)F)c3)ncn2)c1 [Example 3.9, 3-((3-((4-(Piperidin-1-yl)-2-(6-(3-(trifluoromethyl)phenoxy)pyrimidin-4-yl)phenyl)carbamoyl)benzyl)thio)propanoic acid]	10 to 31.6 µM	
O=C(NCc1cccc(C(F)(F)F)c1)c1ccnc(-c2cc(N3CCCCC3)ccc2NC(=O)c2cccc(C(=O)N3CCC(N4CCOCC4)CC3)c2)c1 [Example 4.23]	10 to 31.6 µM	
O=C(O)CCSCc1cccc(C(=O)Nc2ccc(N3CCCCC3)cc2-c2cc(OCc3cccc(C(F)(F)F)c3)ncn2)c1 [Example 3.8, 3-((3-((4-(Piperidin-1-yl)-2-(6-((3-(trifluoromethyl)benzyl)oxy)pyrimidin-4-yl)phenyl)carbamoyl)benzyl)thio)propanoic acid]	10 to 31.6 µM	
CCN(CC)CCN(C)Cc1cccc(C(=O)Nc2ccc(Cl)cc2-c2cc(NCc3cccc(C(F)(F)F)c3)ncn2)c1 [Example 68, N-(4-Chloro-2-(6-((3-(trifluoromethyl)benzyl)amino)pyrimidin-4-yl)phenyl)-3-(((2-(diethylamino)ethyl)(methyl)amino)methyl)benzamide]	10 to 31.6 µM	
CN(CCOCCOCCOCCC(=O)O)Cc1cccc(C(=O)Nc2ccc(N3CCCCC3)cc2-c2cc(C(=O)NCc3cccc(C(F)(F)F)c3)ccn2)n1 [Example 54, 2-Methyl-1-(6-((4-(piperidin-1-yl)-2-(4-((3-(trifluoromethyl)benzyl)carbamoyl)pyridin-2-yl)phenyl)carbamoyl)pyridin-2-yl)-5,8,11-trioxa-2-azatetradecan-14-oic acid]	10 to 31.6 µM	
CC(=O)N[C@H]1CCN(Cc2cccc(C(=O)Nc3ccc(N4CCCCC4)cc3-c3cc(C(=O)NCc4cccc(C(F)(F)F)c4)ccn3)n2)C1 [Example 56, (S)-6-((3-Acetamidopyrrolidin-1-yl)methyl)-N-(4-(piperidin-1-yl)-2-(4-((3-(trifluoromethyl)benzyl)carbamoyl)pyridin-2-yl)phenyl)picolinamide]	10 to 31.6 µM	
CC(=O)NC1CCN(C(=O)c2cccc(C(=O)Nc3ccc(N4CCCCC4)cc3-c3cc(C(=O)NCc4cccc(C(F)(F)F)c4)ccn3)c2)CC1 [Example 4.7, 2-(2-(3-(4-Acetamidopiperidine-1-carbonyl)benzamido)-5-(piperidin-1-yl)phenyl)-N-(3-(trifluoromethyl)benzyl)isonicotinamide]	10 to 31.6 µM	
CCN(CC)c1ccc(NC(=O)c2cccc(C(=O)N(C)CCN(C)CCOCCOCCOCCNC(=O)N(CCO)CCO)c2)c(-c2cc(C(=O)N[C@H]3CCCc4ccccc43)ccn2)c1 [Example 225, (S)—N1-(4-(diethylamino)-2-(4-(1,2,3,4-tetrahydronaphthalen-1-ylcarbamoyl)pyridin-2-yl)phenyl)-N3-(1-hydroxy-3-(2-hydroxyethyl)-17-methyl-4-oxo-8,11,14-trioxa-3,5,17-triazanonadecan-19-yl)-N3-methylisophthalamide]	10 to 31.6 µM	
CCN(CC)c1ccc(NC(=O)c2ccc(CCCOCCOCCOCC[N+]34CCC(CC3)CC4)cc2)c(-c2cc(C(=O)NCc3cccc(C(F)(F)F)c3)ccn2)c1 [Example 331, 1-(2-(2-(2-(3-(4-(4-(diethylamino)-2-(4-(3-(trifluoromethyl)benzylcarbamoyl)pyridin-2-yl)phenylcarbamoyl)phenyl)propoxy)ethoxy)ethoxy)ethyl)-1-azonia-bicyclo[2.2.2]octane]		5.1-6.0
O=C(O)CCCC1CCN(C(=O)CCCC2CCN(C(=O)c3cccc(C(=O)Nc4ccc(N5CCCCC5)cc4-c4cc(C(=O)NCc5cccc(C(F)(F)F)c5)ccn4)c3)CC2)CC1 [Example 113]	1 to 7.94 µM	
CN(CCOCCOCCOCCC(=O)O)C(=O)c1cccc(SCc2cccc(C(=O)Nc3ccc(N4CCCCC4)cc3-c3cc(C(=O)NCc4cccc(C(F)(F)F)c4)ccn3)c2)c1 [Example 135, 3-(2-(2-(2-(N-methyl-3-(3-(4-(piperidin-1-yl)-2-(4-(3-(trifluoromethyl)benzylcarbamoyl)pyridin-2-yl)phenylcarbamoyl)benzylthio)benzamido)ethoxy)ethoxy)ethoxy)propanoic acid]	1 to 7.94 µM	
O=C(O)CN(CCOCCO)C(=O)CCOCCOCCOCCOCCSCc1cccc(C(=O)Nc2ccc(N3CCCCC3)cc2-c2cc(C(=O)NCc3cccc(C(F)(F)F)c3)ccn2)c1 [Example 145, 18-(2-(2-hydroxyethoxy)ethyl)-17-oxo-1-(3-(4-(piperidin-1-yl)-2-(4-(3-(trifluoromethyl)benzylcarbamoyl)pyridin-2-yl)phenylcarbamoyl)phenyl)-5,8,11,14-tetraoxa-2-thia-18-azaicosan-20-oic acid]	10 to 31.6 µM	
CN(CCN1CCOCC1)C(=O)c1cccc(C(=O)Nc2ccc(N3CCCCC3)cc2-c2cc(NCc3cccc(C(F)(F)F)c3)ccn2)c1 [Example 104]	10 to 31.6 µM	
CCN(CC)c1ccc(NC(=O)c2cccc(CCCOCCOCCOCCOCCNS(=O)(=O)c3ccc(CCC(=O)N(CCOC)CCOCCOCCOCCOCCOCCOCCOC)cc3)c2)c(-c2cc(C(=O)NCc3cccc(C(F)(F)F)c3)ccn2)c1 [Example 295, 2-(5-(diethylamino)-2-(3-(1-(4-(23-(2-methoxyethyl)-24-oxo-2,5,8,11,14,17,20-heptaoxa-23-azahexacosan-26-yl)phenylsulfonamido)-3,6,9,12-tetraoxapentadecan-15-yl)benzamido)phenyl)-N-(3-(trifluoromethyl)benzyl)isonicotinamide]	1 to 7.94 µM	
COCCNC(=O)[C@@H]1CCCN(C(=O)c2cccc(C(=O)Nc3ccc(N4CCCCC4)cc3-c3cc(C(=O)NCc4cccc(C(F)(F)F)c4)ccn3)c2)C1 [Example 4.15, (R)-2-(2-(3-(3-((2-Methoxyethyl)carbamoyl)piperidine-1-carbonyl)benzamido)-5-(piperidin-1-yl)phenyl)-N-(3-(trifluoromethyl)benzyl)isonicotinamide]	1 to 7.94 µM	

Continued, in another order:

IC50	Structure (SMILES)	pIC50 range for rat Nap2b
1 to 7.94 µM	O=C(O)c1cccc(CSc2cccc(C(=O)Nc3ccc(N4CCCCC4)cc3-c3cc(C(=O)NCc4cccc(C(F)(F)F)c4)ccn3)c2)c1 [Example 186, 3-((3-(4-(piperidin-1-yl)-2-(4-(3-(trifluoromethyl)benzylcarbamoyl)pyridin-2-yl)phenylcarbamoyl)phenylthio)methyl)benzoic acid]	
10 to 31.6 µM	CC(C)(C)OC(=O)NC(CSCc1cccc(C(=O)Nc2ccc(N3CCCCC3)cc2-c2cc(C(=O)NCc3cccc(C(F)(F)F)c3)ccn2)c1)C(=O)O (stereo not shown) [Example 8.10]	
1 to 7.94 µM	CN(Cc1cccnc1)C(=O)c1cccc(C(=O)Nc2ccc(N3CCCCC3)cc2-c2cc(C(=O)NCc3cccc(C(F)(F)F)c3)ccn2)c1 [Example 4.27]	
10 to 31.6 µM	O=C(O)CCSCc1cccc(C(=O)Nc2ccc(N3CCCCC3)cc2-c2cc(C(=O)NCc3ccc(-n4cccn4)cc3)ccn2)c1 [Example 79, 3-(3-((2-(4-((4-(1H-Pyrazol-1-yl)benzyl)carbamoyl)pyridin-2-yl)-4-(piperidin-1-yl)phenyl)carbamoyl)benzylthio)propanoic acid]	
1 to 7.94 µM	O=C(O)CCSCc1cccc(C(=O)Nc2ccc(N3CCCCC3)cc2-c2cc(C(=O)NC3Cc4ccccc4C3)ccn2)c1 [Example 1.35]	
1 to 7.94 µM	CN(CCn1ccnc1)C(=O)c1cccc(C(=O)Nc2ccc(N3CCCCC3)cc2-c2cc(C(=O)NCc3cccc(C(F)(F)F)c3)ccn2)c1 [Example 4.28]	
10 to 31.6 µM	O=C(O)CCSCc1cccc(C(=O)Nc2ccc(N3CCCCC3)cc2-c2cc(C(=O)NCc3cccc(C(F)(F)F)c3)ncn2)c1 [Example 87]	
